Results as given in patent US20170027902A1, “Use of a Composition Comprising a Flavonol, A Flavonoid, and a Fatty Acid in the Treatment of Oxidative Injuries Due to Mitochondrial Dysfunction” (priority 2014, published 2017).

Test system: primary mouse cortical cultures
Test: Confocal imaging of calcium transients and mitochondrial membrane potential
Format: cell-based
Conditions: for number of neurons displaying elevated [Ca2+]c / oscillations: 3 μg/ml (~10 μM); for number / frequency of [Ca2+]c oscillations in cortical neurons: Q 3 μg/ml added after pretreatment with E 3 μg/ml
Protocol: Embryonic day 16 timed pregnant CD1 out-bred mice were obtained from Charles River Laboratories (Charles River; QC, Canada). Primary cortical neuron cultures were prepared from cerebral cortices of wild type (WT) CD1 mouse embryos as described previously, with the following modifications. Pregnant CD1 females were heavily anaesthetized with isoflurane vapor (Benson Medical Industries, Inc., Markham, ON) before being euthanized by decapitation. The embryonic day 16 (E16) fetuses were immediately removed from the sacrificed pregnant females by cesarean section and placed in ice-cold Hank's Balanced Salt Solution (HBSS) (GIBCO; Invitrogen, Amarillo, Calif.). The meninges were removed from the brains and cortices were isolated under a dissecting microscope. The cortices from each embryo were placed in individual wells of a 24-well plate (Corning; Lowell, Mass.), containing 1 ml of ice-cold PBS (GIBCO; […] Under sterile conditions, the tissue was briefly minced, transferred to 15 ml sterile conical tubes (Corning; Lowell, Mass.) and centrifuged at 350×g for 3 min at room temperature. The dissecting solution was discarded and the cortical neurons were then dissociated trituration with fire-polished glass pipettes followed by incubating in 1 ml of 0.1% trypsin solution (0.1% w/v trypsin (Invitrogen, Amarillo, Calif.) in PBS with 1 mM Mg^2+ and 13 mM glucose) at 37° C. for 15 min. The trypsinization was inhibited by the addition of 0.5 ml of trypsin inhibitor solution that also contained DNase I (0.06% w/v trypsin inhibitor (Invitrogen; Amarillo, Calif.) and 0.01% DNase I (Invitrogen; […] The tubes were mixed briefly and the cells were centrifuged at 350×g for 3 min at room temperature. The trypsin and inhibitor solutions were discarded and each cell pellet was suspended in 1 ml of cortical neuron plating medium (Neurobasal medium (Invitrogen, Amarillo, Calif.) with 10% fetal bovine serum (GIBCO; Invitrogen; Amarillo, Calif.), 2% B27 supplement, 1 mM L-glutamine, and 1% Gentamycin (Invitrogen; […] Cortical neurons were plated in 96-well plates (Corning; Lowell, Mass.) that were pre-coated with poly-D-lysine (PDL; Sigma-Aldrich; Oakville, ON) according to the procedure described by the manufacturer. Briefly, plates were coated immediately before use with 100 μg/ml PDL for 5-10 min (50 μl/well), washed three times with tissue-culture grade water and left to dry for 2 h before cells were introduced. Cortical neurons were plated at a concentration of 1×10^6 cells/ml (100 µl/well) and medium was completely changed the day after plating to serum-free cortical neuron medium (Neurobasal medium with 2% B27 supplement, 5 mM HEPES, 0.5 mM L-glutamine, and 20 μg/ml Gentamycin), which was replaced every 3 days in culture. Cultures were maintained in a humidified, 37° C. incubator with 5% CO2. Experiments were performed on the eighth day in vitro (DIV10). For measurements of mitochondrial membrane potential (ΔΨm), cells were loaded with 25 nM tetrannethylrhodamine methyl ester (TMRM) for 30 min at room temperature and the dye was present during the experiment. TMRM is used in the redistribution mode to assess ΔΨm with a reduction in TMRM fluorescence indicating mitochondrial depolarization. Neurons were loaded for 30 min at room temperature with X-rhod-1 AM (0.5 μM) and Fluo-3 AM (0.5 μM) (Molecular Probes, Invitrogen) prior to imaging in HEPES-buffered salt solution (HBSS) composed of (mM): 156 NaCl, 3 KCl, 2 MgSO4, 1.25 KH2PO4, 2 CaCl2, 10 glucose and 10 HEPES, pH adjusted to 7.35 with NaOH. Confocal images were obtained using a 510 CLSM (Zeiss, Thornwood, N.Y.) equipped with a META detection system and a […] oil-immersion objective. The 488 nm Argon laser line was used to excite fluo-3 fluorescence, which was measured using a bandpass filter from 505 to 550 nm. Illumination intensity was kept to a minimum (at 0.1-0.2% of laser output) to avoid phototoxicity and the pinhole was set to give an optical slice of 2 μm. […]

[1] = ten minutes after addition, fluo-3
[2] = sequential addition of 0.3 and 1 μM

Row | Structure (SMILES) | number of neurons displaying [Ca2+]c oscillations (1 μg/ml (~3 μM), ten minutes after addition, fluo-3) | number of neurons displaying [Ca2+]c oscillations (1 μg/ml (~3 μM), ten minutes after addition, fluo-3, listed as quercetin) | number of neurons displaying elevated [Ca2+]c / oscillations [1] | number of neurons displaying elevated [Ca2+]c / oscillations (ten minutes after addition, fluo-3, listed as quercetin) | frequency of neuronal [Ca2+]c oscillations (1 and 3 μg/ml (~3-10 μM), concentration-dependent) | mitochondrial membrane potential (TMRM) (1 and 3 μg/ml (~3 and 10 μM)) | [Ca2+]m (mitochondrial) oscillations, x-rhod-1 (Q 3 μg/ml added after E 3 μg/ml) | number of neurons displaying [Ca2+]c oscillations (Q 3 μg/ml added after E 3 μg/ml, ten minutes later) | number of neurons displaying [Ca2+]c oscillations (Q 3 μg/ml added after E 3 μg/ml, ten minutes later, listed as quercetin) | number / frequency of [Ca2+]c oscillations in cortical neurons | [Ca2+]c oscillations (fluo-4) [2] | basal [Ca2+]c [2] | mitochondrial membrane potential (TMRM) [2] | [Ca2+]c oscillations in a cortical neuron (3 μg/ml (~10 μM) alone) | [Ca2+]m (mitochondrial) oscillations, x-rhod-1 (3 μg/ml (~10 μM) alone) | [Ca2+]c oscillations in a cortical neuron (3 μg/ml (~10 μM) alone, listed as epicatechin) | number of neurons displaying elevated [Ca2+]c / oscillations (ten minutes after addition, fluo-3, listed as epicatechin)
1 | O=c1c(O)c(-c2ccc(O)c(O)c2)oc2cc(O)cc(O)c12 [Q] | small increase | increased | further elevation | increased | increased the frequency | modestly elevated | induction | did increase | increased | supra-additive increase | concentration dependent stimulation | moderate rise | elevation | – | – | – | –
2 | Oc1cc(O)c2c(c1)O[C@H](c1ccc(O)c(O)c1)[C@H](O)C2 [E, (2R,3R)-2-(3,4-dihydroxyphenyl)-3,4-dihydro-2H-chromene-3,5,7-triol] | – | – | no change | – | – | – | – | – | – | enhanced the frequency | – | – | – | did not trigger | did not trigger | did not increase | did not increase
